{"source": "paper PMC10824666", "about": "(Nature Cancer, 2023)", "molecular_target": "T1, EPHB3 (Homo sapiens, UniProt P54753)", "T1 sequence (P54753 1-998)": "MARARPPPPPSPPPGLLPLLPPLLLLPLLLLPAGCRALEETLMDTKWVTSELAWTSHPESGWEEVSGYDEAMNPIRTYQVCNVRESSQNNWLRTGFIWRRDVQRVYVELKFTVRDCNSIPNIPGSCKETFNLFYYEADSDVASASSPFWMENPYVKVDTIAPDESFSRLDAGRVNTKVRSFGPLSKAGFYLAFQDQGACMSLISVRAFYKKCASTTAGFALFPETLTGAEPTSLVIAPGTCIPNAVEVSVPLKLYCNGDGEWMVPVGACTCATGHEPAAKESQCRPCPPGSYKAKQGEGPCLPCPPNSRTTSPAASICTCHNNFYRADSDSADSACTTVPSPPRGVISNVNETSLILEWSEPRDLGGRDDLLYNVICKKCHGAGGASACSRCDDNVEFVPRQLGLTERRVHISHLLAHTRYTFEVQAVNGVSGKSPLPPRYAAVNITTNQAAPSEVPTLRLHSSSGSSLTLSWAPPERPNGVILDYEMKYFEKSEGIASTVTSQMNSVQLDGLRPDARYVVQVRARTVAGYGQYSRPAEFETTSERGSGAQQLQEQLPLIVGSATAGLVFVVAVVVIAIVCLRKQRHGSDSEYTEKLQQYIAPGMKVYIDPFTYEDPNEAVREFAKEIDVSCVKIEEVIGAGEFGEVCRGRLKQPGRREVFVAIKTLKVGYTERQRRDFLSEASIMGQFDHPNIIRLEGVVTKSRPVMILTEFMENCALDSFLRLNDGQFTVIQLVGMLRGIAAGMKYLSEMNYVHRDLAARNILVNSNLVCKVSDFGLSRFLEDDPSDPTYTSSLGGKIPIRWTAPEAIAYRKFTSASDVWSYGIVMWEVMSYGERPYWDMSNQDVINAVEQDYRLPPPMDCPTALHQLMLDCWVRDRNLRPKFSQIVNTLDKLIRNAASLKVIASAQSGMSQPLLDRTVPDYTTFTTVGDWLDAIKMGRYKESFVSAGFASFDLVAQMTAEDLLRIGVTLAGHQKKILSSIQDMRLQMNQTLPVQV", "assay": "biochemical", "parameters": "Eurofins DiscoverX kinase panel, competitive binding assay at 1 uM, percent of DMSO control", "conditions": "competitive binding, percent of DMSO control", "procedure,_shortened": "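Single-point profiling at 1 µM compound in a competition-binding format against 96 kinases, read out as POC relative to control; n = 1.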", "note": "Like-named read-outs stand apart in the source and are kept apart here.", "data": [{"smiles": "CC(C)(C)NS(=O)(=O)c1cccc(NC(=O)c2ccc(S(=O)(=O)NC(C)(C)C)cc2N2CCC3(CC2)CC3)c1", "note": "[AM-1882]", "values": [{"measurement": "remaining activity at 1 µM", "setting": "read-out: Kinome Profiling performed by Eurofins DiscoverX / AM-1882, 1.0 µM / POC", "value": 98, "unit": "%"}]}, {"smiles": "CC(C)(CO)Nc1ccc(C(=O)Nc2cccc(S(=O)(=O)C3CCCC3)c2)c(N2CCC3(CC2)CC3)n1", "note": "[AM-0277]", "values": [{"measurement": "remaining activity at 1 µM", "setting": "read-out: Kinome Profiling performed by Eurofins DiscoverX / AM-0277, 1.0 µM / POC", "value": 87, "unit": "%"}]}, {"smiles": "C[C@@H]1CN(c2cccc(NC(=O)c3ccc(NS(=O)(=O)CCO)cc3N3CCC4(CC3)CC4)n2)CCO1", "note": "[AM-5308]", "values": [{"measurement": "remaining activity at 1 µM", "setting": "read-out: Kinome Profiling performed by Eurofins DiscoverX / AM-5308, 1.0 µM / POC", "value": 44, "unit": "%"}]}]}
